# Assay results as given in patent publication US10487071B2, “Bis-triazole compounds with anti-biofilm and anti-corrosion properties” (Université de Toulon, priority 2015, dated 2019).
# Like-named read-outs stand apart in the source and are kept apart here.
# How the values were obtained:
# [1] = tested on: Pseudoalteromonas ulvae (TC14); experiment: Anti-adhesion test, strain TC14; type: cell-based; conditions: Pseudoalteromonas ulvae; for activity at 200 µM: 15 h; for EC50: read-out: EC50 (effective concentration to inhibit 50% of the adhesion)
# Outline: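 Stationary-phase TC14 cells grown in VNSS, diluted in artificial seawater and incubated with compound at eight concentrations in triplicate (DMSO ≤2%) for about 15 h. Non-adhered bacteria removed and adhered cells quantified by SYTO 61 (1 μM) staining. EC50 derived from sigmoid fit of % inhibition versus log concentration.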
# [2] = tested on: Pseudoalteromonas lipolytica (TC8); experiment: Anti-adhesion test, strain TC8; type: cell-based; conditions: Pseudoalteromonas lipolytica; for activity at 200 µM: 15 h, read-out: % of adhesion at 200 μM, TC8; for EC50: read-out: EC50 (effective concentration to inhibit 50% of the adhesion), TC8
# Outline: (§1)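 Stationary-phase bacteria grown in VNSS, diluted in artificial sea water and incubated about 15 h with compound at eight concentrations in triplicate, DMSO up to 2%. Adhered cells stained with SYTO 61 (1 μM). EC50 from a sigmoid fit of % inhibition against log concentration.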
# [3] = Gravimetry (weight loss), corrosion inhibition; conditions: mild steel in 1N HCl
# Outline: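 Mild steel coupons (2.5×2.0×0.1 cm) immersed in non-de-aerated 1N HCl without or with various inhibitor concentrations, then washed, dried and reweighed; duplicate runs. IE (%) calculated from corrosion rates without (CR^o) and with (CR) inhibitor.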
# Paracoccus sp. (4M6) [4] = experiment: Anti-adhesion test, strain 4M6; type: cell-based; conditions: Paracoccus; for activity at 200 µM: 15 h, read-out: % of adhesion at 200 μM, 4M6
# Outline: as §1
# [5] = Electrochemical impedance spectroscopy, corrosion inhibition; conditions: 200 ppm; mild steel in 1N HCl; EIS
# Experimental: The corrosion rates were determined by electrochemical impedance spectroscopy measurements and gravimetry.
# The electrochemical measurements were performed on a 273 A potentiostat (EGG/PAR) coupled to a Solartron 1255 frequency response analyser. EIS measurements were carried out with a solution containing 1N HCl in the absence and presence of the tested compound at a concentration of 200 ppm under unstirred conditions, at open circuit potential with a 10 mV rms amplitude perturbation over a 20 mHz-100 kHz frequency range.
# EIS data were registered and analysed using Zview software (Scribners Associates, USA).
# A conventional three-electrode cell was used. It comprises a platinum foil as auxiliary electrode, a saturated calomel reference electrode (SCE) and a mild steel coupon as the working electrode with a surface area of 15.7 cm^2.
# Electrochemical impedance spectroscopic (EIS) studies have been conducted to investigate corrosion inhibition processes of compounds of the invention according to the Electrochemical impedance spectroscopic test method described herein.
# The high frequency loop was analyzed in terms of an equivalent circuit involving a parallel combination of Rct and the constant phase element of double layer (CPE). The inhibition efficiency, IE (%), was estimated from the measured Rct values using the following equation: […]
# Polaribacter sp. (TC5) [6] = experiment: Anti-adhesion test, strain TC5; type: cell-based
# Experimental: (§2) Bacterial strains were grown on Väätänen nine-salts solution (VNSS). When the stationary phase was reached, the bacterial suspension was centrifuged. Cells were then diluted in sterile artificial sea water (ASW) and introduced in microtiter plates (sterile black PS; Nunc, Fisher Scientific, France) with the tested compound (at eight concentrations in three replicates) in the presence of three controls: (i) non-specific staining control, (ii) adhesion control, and (iii) positive control. The maximum percentage of solvent (DMSO 2%) used to dilute the tested compound was also tested in triplicate as additional control. After incubation during an optimized adhesion time (moderately 15 h), non-adhered bacteria were eliminated and adhered cells were quantified after SYTO 61 (1 μM) staining. A percentage of inhibition was calculated per well. A sigmoid dose-response curve was obtained by plotting the percentage of inhibition as a function of the log of tested compound concentration, after mean (n=3) and standard deviation (SD) calculation per triplicate for each concentration. EC50 values were then calculated for each compound.
# (§3) Polaribacter sp. (TC5) was isolated in June 2010 in the Military Harbor of Toulon (Mediterranean Sea, France) as described in F. Brian-Jaisson, A. Ortalo-Magné, L. Guentas-Dombrowsky, F. Armougom, Y. Blache, M. Molmeret, Microb. Ecol., 2014, 68, 94-110.
# [7] = tested on: marine bacterial strains (TC14, TC8, 4M6, TC5 and TC11); experiment: Toxicity test, summary over the strains; type: cell-based; conditions: comparison with reference biocides
# From the text: (§4) In examples 64 and 65, the following marine bacterial strains are used.
# Shewanella sp. (TC11) [8] = experiment: Toxicity test, strain TC11; type: cell-based
# From the text: (§5) Shewanella sp. (TC11) was isolated in June 2010 in the Military Harbor of Toulon (Mediterranean Sea, France) as described in F. Brian-Jaisson, A. Ortalo-Magné, L. Guentas-Dombrowsky, F. Armougom, Y. Blache, M. Molmeret, Microb. Ecol., 2014, 68, 94-110.
# Shewanella sp. (TC11) [9] = experiment: Anti-adhesion test, strain TC11; type: cell-based
# Experimental: as §2, §5
# Polaribacter sp. (TC5) [10] = experiment: Toxicity test, strain TC5; type: cell-based
# From the text: as §3
# Paracoccus sp. (4M6) [11] = experiment: microbe, parasite or virus in culture
# From the text: (§6) The anti-adhesion bioassays and toxicity tests are adapted from those disclosed in M. Camps, J.-F. Briand, L. Guentas-Dombrowsky, G. Culioli, A. Bazire and Y. Blache, Mar. Poll.
# (§7) After growth on VNSS, bacterial strains were harvested during the exponential phase. The microtiter plates (sterile transparent PS; Nunc, Fisher Scientific) were filled as described in the Anti-adhesion test method using VNSS instead of ASW to allow bacterial growth. The growth was followed by measuring the turbidity (OD600 nm) every hour during 6 or 7 hours. Then, resazurin (50 μM) was added in all the wells, and fluorescence was measured after 2 h to quantify the percent of bacterial viability. The same methodology used with SYTO 61 was applied to calculate a percent of viability after resazurin staining.
# [12] = tested on: Pseudoalteromonas lipolytica (TC8); experiment: microbe, parasite or virus in culture
# From the text: as §6, §7
# [13] = tested on: marine bacterial strains (TC14, TC8, 4M6, TC5 and TC11); experiment: Anti-adhesion test, summary over the strains; type: cell-based
# Experimental: as §2, §4
# [14] = tested on: Pseudoalteromonas ulvae (TC14); experiment: Toxicity test, strain TC14; type: cell-based
# From the text: Pseudoalteromonas ulvae (TC14) was isolated in June 2010 in the Military Harbor of Toulon (Mediterranean Sea, France) as described in F. Brian-Jaisson, A. Ortalo-Magné, L. Guentas-Dombrowsky, F. Armougom, Y. Blache, M. Molmeret, Microb. Ecol., 2014, 68, 94-110.
compound,measurement,setting,value
CN(C)CCOc1ccc(CCn2cc(CNCc3cn(CCc4ccc(OCCN(C)C)c(Br)c4)nn3)nn2)cc1Br [AS164],activity at 200 µM,[1],40.8 ± 5%
same,EC50,[1],126 ± 21.5 µM
same,activity at 200 µM,[2],47.1 ± 1%
same,EC50,[2],176 ± 3 µM
same,IE %,[3]; 0.1 ppm,57.10%
same,IE %,[3]; 0.3 ppm,90.49%
same,IE %,[3]; 0.5 ppm,89.20%
same,IE %,[3]; 2 ppm,92.42%
same,IE %,[3]; 10 ppm,97.20%
same,inhibition efficiency from weight loss experiments,[3]; 25-200 ppm,greater than 97%
same,activity at 200 µM,Paracoccus sp. (4M6) [4],51.7 ± 4.3%
same,inhibition efficiency (IE %) from Rct values,[5],around 95%
"CN(C)CCOc1c(Br)cc(CCn2cc(-c3ccc(-c4cn(CCc5cc(Br)c(OCCN(C)C)c(Br)c5)nn4)cc3)nn2)cc1Br [SA33, 2-(4-(2-(4-(4-(1-(4-(2-(dimethylamino)ethoxy)-3,5-dibromophenethyl)-1H-1,2,3-triazol-4-yl)phenyl)-1H-1,2,3-triazol-1-yl)ethyl)-2,6-dibromophenoxy)-N,N-dimethylethanamine]",activity at 200 µM,[1],6.3 ± 1.3%
same,EC50,[1],20.4 ± 1.2 µM
same,activity at 200 µM,"Polaribacter sp. (TC5) [6]; 15 h, 200 μM",0.7 ± 0.7%
same,EC50,Polaribacter sp. (TC5) [6]; read-out: EC50 (effective concentration to inhibit 50% of the adhesion),19.2 ± 2.1 µM
same,activity at 200 µM,[2],6.8 ± 4.3%
same,EC50,[2],42.5 ± 16.9 µM
same,toxicity by LC50 values compared with TBTO/ZINEB,[7],less toxic than ZINEB
same,IE %,[3]; 0.1 ppm,87.08%
same,IE %,[3]; 0.3 ppm,95.37%
same,IE %,[3]; 0.5 ppm,95.89%
same,IE %,[3]; 2 ppm,96.25%
same,IE %,[3]; 10 ppm,96.03%
same,"IS: LC50/EC50 (selectivity index), TC11",Shewanella sp. (TC11) [8],4.2
same,"LC50 (necessary concentration to kill 50% of the bacteria), TC11",Shewanella sp. (TC11) [8],134.8 µM
same,activity at 200 µM,"Shewanella sp. (TC11) [9]; 15 h, 200 μM, strain TC11, read-out: % of adhesion at 200 μM, TC11",4.4 ± 2.7%
same,EC50,"Shewanella sp. (TC11) [9]; read-out: EC50 (effective concentration to inhibit 50% of the adhesion), strain TC11",32 ± 8.1 µM
same,"IS: LC50/EC50 (selectivity index), TC5",Polaribacter sp. (TC5) [10],4.8
same,CC50,Polaribacter sp. (TC5) [10]; read-out: LC50 (necessary concentration to kill 50% of the bacteria),92.6 µM
same,activity at 200 µM,Paracoccus sp. (4M6) [4],7.4 ± 8.3%
same,EC50,"Paracoccus sp. (4M6) [4]; read-out: EC50 (effective concentration to inhibit 50% of the adhesion), 4M6",11.3 ± 9.1 µM
same,CC50,"Paracoccus sp. (4M6) [11]; Paracoccus, read-out: LC50 (necessary concentration to kill 50% of the bacteria), 4M6",126 µM
same,"IS: LC50/EC50 (selectivity index), 4M6",Paracoccus sp. (4M6) [11]; strain 4M6,11.2
same,CC50,"[12]; Pseudoalteromonas lipolytica, read-out: LC50 (necessary concentration to kill 50% of the bacteria), TC8",199 µM
same,"IS: LC50/EC50 (selectivity index), TC8",[12]; strain TC8,4.7
same,EC50 compared with TBTO/ZINEB,[13]; comparison with reference biocides,comparable to that of ZINEB
same,inhibition at 200 µM,[13]; read-out: inhibition of the adhesion of at least four marine bacterial strains,≥ 85%
same,inhibition at 200 µM,[13]; read-out: inhibition of the adhesion of at least two marine bacterial strains,≥ 65%
same,"IS: LC50/EC50 (selectivity index), TC14",[14],12.45
same,"LC50 (necessary concentration to kill 50% of the bacteria), TC14",[14],254.1 µM
